In EP0513703A2, “Carbamate esters of eseroline having anticholinesterase activity, a process for their preparation and relative pharmaceutical compositions containing them as the active principle” (priority 1991, dated 1992):
Where two headings read alike, the source gives them in different places.

Experiments:
[1] = test system: mice (Swiss strain); experiment: Acute toxicity, LD50 by oral route in mice (class E derivatives); type: in vivo; details: mouse, suspension in 2 % carboxymethylcellulose, observation 7 days
From the text: (§1) The letal doses 50 (LD50) by oral route (suspension in 2 % carboxymethylcellulose) are reported herinbelow: TABLE 9

[2] = test system: acetylcholinesterase; type: in vivo, Wistar male rats; details: rat
[3] = test system: mouse; experiment: Spontaneous motility, Dews method modified according to Carminati (class E derivatives); type: in vivo; details: mouse (Strain Swiss)
From the text: (§2) The Dews method was used, modified according to Carminati (Arch. int. Pharmacodyn. et Thér 181, 68,1969).

[4] = test system: SWISS male mice; experiment: Electroencephalographic activity (class E derivatives); type: in vivo; details: 0.4 mg/kg/os, in the course of the successive 30 minutes
[5] = Pharmacokinetics, plasma level by HPLC (MS001); type: in vivo, Wistar male rats; details: rat, 0.5 mg/kg/os
Method: The presence of MS001 in plasma was detected by HPLC.
With the optimized method the detection limit was of 0.20 µg per ml of plasma.

[6] = Acute toxicity, LD50 by oral route in mice (class A derivatives); type: in vivo; details: both sexes, Swiss, in vivo, mouse, suspension in 2 % carboxymethylcellulose, observation 7 days, read-out: LD50 per os
From the text: The letal doses 50 (LD50) by oral route (suspension in 2 % carboxymethylcellulose) are reported herinbelow: TABLE 1

[7] = test system: mouse; experiment: Spontaneous motility, Dews method modified according to Carminati (class A derivatives); type: in vivo; details: mouse (Swiss), minimum doses
From the text: as §2

[8] = test system: SWISS mice; experiment: Antagonism of the central stimulating (hypermotor) effect of scopolamine (class A derivatives); type: in vivo; details: given 30 minutes before scopolamine 1 mg/kg s.c.
From the text: (§3) At this dose the substance provoked in all the animals a considerable increase (80-100%) of the spontaneous motility, studied according to the above mentioned method.

[9] = test system: mice; experiment: Toxicity, LD50 by intraperitoneal route (class B derivatives); type: in vivo; details: death within 24 hours of 50% of the tested animals
From the text: In the following table reported are LD50 values determined on mice for the listed compounds and compared with that of physostigmine administered by the same (intraperitoneal) route.

[10] = test system: mouse; experiment: Toxicity, LD50 by intraperitoneal route (class C derivatives); type: in vivo
From the text: In the following table reported are the LD50 values determined on mouse for the compounds listed and compared with the corresponding LD50 value for physostigmine, administered by the same (intraperitoneal) route.

[11] = Acute toxicity, LD50 by oral route in mice (class D derivatives); type: in vivo; details: both sexes, Swiss, in vivo, mouse, suspension in 2 % carboxymethylcellulose, observation 7 days, read-out: LD50 per os
From the text: The letal doses 50 (LD50) by oral route (suspension in 2 % carboxymethylcellulose) are reported hereinbelow: TABLE 6

[12] = test system: mouse; experiment: Spontaneous motility, Dews method modified according to Carminati (class D derivatives); type: in vivo; details: mouse (Swiss)
From the text: as §2

[13] = test system: SWISS mice; experiment: Antagonism of the central stimulating (hypermotor) effect of scopolamine (class D derivatives); type: in vivo; details: given 30 minutes before scopolamine 1 mg/kg s.c.
From the text: as §3

[14] = Acute toxicity, LD50 by oral route in mice (class E derivatives); type: in vivo; details: both sexes, Swiss, in vivo, mouse, suspension in 2 % carboxymethylcellulose, observation 7 days, read-out: LD50 per os
From the text: as §1

[15] = test system: SWISS mice; experiment: Antagonism of the central stimulating (hypermotor) effect of scopolamine (class E derivatives); type: in vivo; details: given 30 minutes before scopolamine 1 mg/kg s.c.
From the text: At this dose the substance provoked a considerable increase (80-100%) of the spontaneous motility, studied according to the above mentioned method.

[16] = Acute toxicity, LD50 by oral administration in mice (class F derivatives); details: both, Swiss, mouse, in vivo, po
[17] = acetylcholinesterase inhibition 20 minutes after oral administration, limits in brackets

With CN1CC[C@@]2(C)c3cc(OC(=O)NCCCCCCCCNC(=O)Oc4ccc5c(c4)[C@]4(C)CCN(C)[C@@H]4N5C)ccc3N(C)[C@@H]12 [MS001, (3a S-cis) - 1,2,3,3a,8,8a hexahydro - 1,3a,8 - trimethyl pyrrol [2,3-b]-indol-5-ol-1,8-octandicarbamate ester] the LD50 per os [1] was 51.40 ± 5.48 mg/kg, the “INHIBITION % OF ACETYLCHOLINESTERASE (AchE) after 60 minutes brain” value ([2]; 0.2 mg/kg/OS) was 43.41 ± 3.25% and the “INHIBITION % OF ACETYLCHOLINESTERASE (AchE) after 60 minutes serum” value ([2]; 0.2 mg/kg/OS) was 36.22 ± 6.20%. For the same compound, the “INHIBITION % OF ACETYLCHOLINESTERASE (AchE) after 120 minutes brain” value ([2]; 0.2 mg/kg/OS) was 19.6 ± 3.41%, the “INHIBITION % OF ACETYLCHOLINESTERASE (AchE) after 120 minutes serum” value ([2]; 0.2 mg/kg/OS) was 23.12 ± 5.28% and the “ED50 (mg/kg/os) brain” value [2, 17] was 0.17 (0.12 - 0.23) mg/kg/os. For the same compound, the “ED50 (mg/kg/os) serum” value [2, 17] was 0.18 (0.12 - 0.26) mg/kg/os, the “oral dose causing a significant decrease of the spontaneous motility” value (shortened to “oral dose causing a significant decrease”) [3] was 0.25 mg/kg and the “decrease of the spontaneous motility (on average)” value ([3]; oral, 0.25 mg/kg) was about -25%. The “modifications of the electroencephalogram” value [4] was “increase of the amplitude and a decrease of the frequency of the electroencephalogram”, the “concentration in plasma after 15 minutes” value [5] was 10.64 ± 6.26 µg/mL and the “concentration in plasma after 120 minutes” value [5] was 32.12 ± 6.41 µg/mL. The “concentration in plasma after twelve hours” value [5] was 11.31 ± 3.18 µg/mL, the “maximum peak in plasma” value [5] was 41.24 ± 8.36 µg/mL and the “time of the maximum peak in plasma” value [5] was 90 '.

For CNC(=O)Oc1ccc2c(c1)[C@]1(C)CCN(C)[C@@H]1N2C [Physostigmine, physostigmine, reference compound], the LD50 at 7 days [6] was 4.37 ± 1.22 mg/kg, the “oral dose causing a significant decrease” value [7] was 0.6 mg/kg and the “dose completely undoing the hypermotor effect of scopolamine” value [8] was 0.4 mg/kg/os. For the same compound, the “LD50 (mg/kg i.p.)” value [9] was 0.6 mg/kg i.p, the “LD50 (mg/kg i.p)” value [10] was 0.6 mg/kg i.p and the LD50 at 7 days [11] was 4.12 ± 0.89 mg/kg. The “oral dose causing a significant decrease” value [12] was 0.6 mg/kg, the “dose completely undoing the hypermotor effect of scopolamine” value [13] was 0.4 mg/kg/os and the LD50 at 7 days [14] was 3.78 ± 0.86 mg/kg. For the same compound, the “INHIBITION % OF ACETYLCHOLINESTERASE (AchE) after 60 minutes brain” value ([2]; in vivo, 0.4 mg/kg) was 22.3 ± 5.12%, the “INHIBITION % OF ACETYLCHOLINESTERASE (AchE) after 60 minutes serum” value ([2]; in vivo, 0.4 mg/kg) was 18.41 ± 4.16% and the “INHIBITION % OF ACETYLCHOLINESTERASE (AchE) after 120 minutes brain” value ([2]; in vivo, 0.4 mg/kg) was 2.41 ± 1.33%. For the same compound, the “INHIBITION % OF ACETYLCHOLINESTERASE (AchE) after 120 minutes serum” value ([2]; in vivo, 0.4 mg/kg) was 3.44 ± 1.21%, the “ED50 (mg/kg/os) brain” value ([2]; in vivo, po) was 0.38 (0.24 - 0.60) mg/kg/os and the “ED50 (mg/kg/os) serum” value ([2]; in vivo, po) was 0.37 (0.23 - 0.59) mg/kg/os. The “oral dose causing a significant decrease” value [3] was 0.6 mg/kg, the “dose completely undoing the hypermotor effect of scopolamine” value [15] was 0.4 mg/kg/os and the LD50 [16] was 4.5 mg/kg.
